Here are results for five molecules from patent US20100190794A1, “Herbicidally Active Composition” (BASF SE, priority 2007, published 2010).

The structures appear in SMILES notation.

For one test, the system named is AVEFA. Description: greenhouse test, pre-emergence treatment. It is filed as in vivo, Avena fatua. The conditions noted are these: 6.25 g/ha a.s., Use Example 6. From the text: (§1) The culture containers used were plastic pots containing loamy sand with approximately 3.0% of humus as substrate. The seeds of the test plants were sown separately for each species.
(§2) For the pre-emergence treatment, the active compounds, suspended or emulsified in water, were applied directly after sowing by means of finely distributing nozzles. The containers were irrigated gently to promote germination and growth and subsequently covered with transparent plastic hoods until the plants had rooted. This cover caused uniform germination of the test plants unless this was adversely affected by the active compounds.
(§3) Depending on the species, the plants were kept at 10-25° C. and 20-35° C., respectively. The test period extended over 2 to 4 weeks. During this time, the plants were tended and their response to the individual treatments was evaluated.
(§4) Evaluation was carried out using a scale from 0 to 100. 100 means no emergence of the plants, or complete destruction of at least the above-ground parts, and 0 means no damage or normal course of growth. Good herbicidal activity is given at values of at least 70, and very good herbicidal activity is given at values of at least 85. […]
(§5) The test period extended over 20 or 21 days. During this time, the plants were tended, and their reactions to the treatment with active compound was monitored.
(§6) What was evaluated was the damage by the chemical compositions using a scale of from 0 to 100%, in comparison to the untreated control plants. […]
(§7) In the examples below, using the method of S. R. Colby (1967) “Calculating synergistic and antagonistic responses of herbicide combinations”, Weeds 15, p. 22 ff., the value E, which is expected if the activity of the individual active compounds is only additive, was calculated. […]
(§8) If the value found in experiments is higher than the value E calculated according to Colby, a synergistic effect is present.

Another test has as its system POAAN. Description: greenhouse test, pre-emergence treatment. In kind it is in vivo, Poa annua. The conditions noted are these: 6.25 g/ha a.s., Use Example 6.
Description: as §1, §2, §3
(§9) Evaluation was carried out using a scale from 0 to 100. 100 means no emergence of the plants, or complete destruction of at least the above-ground parts, and 0 means no damage or normal course of growth. Good herbicidal activity is given at values of at least 70, and very good herbicidal activity is given at values of at least 85.
(§10) The respective stated components A and B, and if appropriate, C were formulated as a 5% by weight or 10% by weight strength emulsion concentrate or a commercially available formulation of component B was used and, with addition of the amount of solvent system, introduced into the spray liquor used for applying the active compound. In the examples, the solvent used was water.
as §5
(§11) What was evaluated was the damage by the chemical compositions using a scale of from 0 to 100%, in comparison to the untreated control plants. 0 means no damage, and 100 means complete destruction of the plants.
(§12) In the examples below, using the method of S. R. Colby (1967) “Calculating synergistic and antagonistic responses of herbicide combinations”, Weeds 15, p. 22 ff., the value E, which is expected if the activity of the individual active compounds is only additive, was calculated.
(§13) where X=percent activity using active compound A at an application rate a; Y=percent activity using active compound B at an application rate b; E=expected activity (in %) by A+B at application rates a+b.
as §8

In test [1] the test system is LOLMU. Description: greenhouse test, pre-emergence treatment. In kind it is in vivo, Lolium multiflorum.
Description: as §1, §2, §3, §9, §10, §5, §11, §12, §13, §8

In test [2] the test system is ALOMY. Description: greenhouse test, pre-emergence treatment. It is filed as in vivo, Alopecurus myosuroides.
Description: as §1, §2, §3, §9, §10, §5, §11, §12, §13, §8

For a further test, the system named is LAMPU. Description: greenhouse test, pre-emergence treatment. It is filed as in vivo, Lamium purpureum.
Description: as §1, §2, §3, §9, §10, §5, §11, §12, §13, §8

Test [3] concerns DIGSA. Description: greenhouse test, post-emergence treatment. It is filed as in vivo, Digitaria sanguinalis. The conditions noted are these: 125 g/ha a.s., Use Example 18. As to the method: as §1
(§14) For the post-emergence treatment, the test plants were grown to a plant height of from 3 to 15 cm, depending on the plant habit, and only then treated with the active compounds which had been suspended or emulsified in water. To this end, the test plants were either sown directly and grown in the same containers, or they were first grown separately as seedlings and transplanted into the test containers a few days prior to treatment.
as §3, §4, §5, §6, §7, §8

The next test has as its system APESV. Description: greenhouse test, pre-emergence treatment. In kind it is in vivo, Apera spica-venti. The settings on record: 32 g/ha a.s., Use Example 21.
Description: as §1, §2, §3, §9, §10, §5, §11, §12, §13, §8

Test [4] deals with SETVI. Description: greenhouse test, post-emergence treatment. It is filed as in vivo, Setaria viridis. As to the method: as §1, §14, §3, §9, §10, §5, §11, §12, §13, §8
The test system of a further test is CCHEC. Description: greenhouse test, pre-emergence treatment. It is filed as in vivo, Cenchrus echinatus. The conditions noted are these: Use Example 3.
Description: as §1, §2, §3, §9, §10, §5, §11, §12, §13, §8

Another test deals with PANDI. Description: greenhouse test, pre-emergence treatment. In kind it is in vivo, Panicum dichotomiflorum. The settings on record: Use Example 3.
Description: as §1, §2, §3, §4, §5, §6, §7, §8

The test system of test [5] is ALOMY. Description: greenhouse test, post-emergence treatment. It is filed as in vivo, Alopecurus myosuroides. The settings on record: Use Example 17. As to the method: as §1, §14, §3, §9, §10, §5, §11, §12, §13, §8
Test [6] concerns LOLMU. Description: greenhouse test, post-emergence treatment. It is filed as in vivo, Lolium multiflorum. The settings on record: Use Example 17. As for the experimental part: as §1, §14, §3, §9, §10, §5, §11, §12, §13, §8
Another test concerns ECHCG. Description: greenhouse test, pre-emergence treatment. In kind it is in vivo, Echinochloa crus-galli. The conditions noted are these: Use Example 22.
Description: as §1, §2, §3, §9, §10, §5, §11, §12, §13, §8

The next test deals with BRAPL. Description: greenhouse test, pre-emergence treatment. It is filed as in vivo, Brachiaria plantaginea. The settings on record: Use Example 12.
Description: as §1, §2, §3, §9, §10, §5, §11, §12, §13, §8

Test [7] relates to DIGSA. Description: greenhouse test, pre-emergence treatment. It is filed as in vivo, Digitaria sanguinalis. The conditions noted are these: Use Example 22.
Description: as §1, §2, §3, §9, §10, §5, §11, §12, §13, §8

Test [8] has as its system SETVI. Description: greenhouse test, pre-emergence treatment. It is filed as in vivo, Setaria viridis. The settings on record: 25 g/ha a.s., Use Example 11.
Description: as §1, §2
Depending on the species, the plants were kept at 10-25° C. and 20-35° C., respectively. […] During this time, the plants were tended and their response to the individual treatments was evaluated. […]
as §5, §6, §7

Another test relates to SOLNI. Description: greenhouse test, pre-emergence treatment. It is filed as in vivo, Solanum nigrum L. The settings on record: Use Example 22.
Description: as §1, §2, §3, §9, §10, §5, §11, §12, §13, §8

For a further test, the system named is SETFA. Description: greenhouse test, pre-emergence treatment. In kind it is in vivo, Setaria faberi.
Description: as §1, §2, §3, §9, §10, §5, §11, §12, §13, §8

Turning to `CC(C)N(C)S(=O)(=O)NC(=O)c1cc(-n2c(=O)cc(C(F)(F)F)n(C)c2=O)c(F)cc1Cl` [2-chloro-5-[3,6-dihydro-3-methyl-2,6-dioxo-4-(trifluoromethyl)-1(2H)-pyrimidinyl]-4-fluoro-N-[(isopropyl)methylsulfamoyl]benzamide, reference compound], the “Herbicidal action in % after 20 days against AVEFA” value in the test with AVEFA is given as 0%. Moreover, the “Herbicidal action in % after 20 days against POAAN” value with POAAN turned out to be 0%.
As to `CC(C)N(C(=O)COc1nnc(C(F)(F)F)s1)c1ccc(F)cc1` [Flufenacet, reference compound], the “Herbicidal action in % after 20 days against LOLMU” value is given as 65% in the test on LOLMU [1] (32 g/ha a.s., Use Example 21); 40% with LOLMU [1] (62.5 g/ha a.s., Use Example 13); 70% in the test on LOLMU [1] (125 g/ha a.s., Use Example 13). Moreover, the “Herbicidal action in % after 20 days against ALOMY” value in the test on ALOMY [2] (32 g/ha a.s., Use Example 21) came out at 70%; in the test on ALOMY [2] (62.5 g/ha a.s., Use Example 13), 75%; in the test on ALOMY [2] (125 g/ha a.s., Use Example 13), 90%. Also, in the test on LAMPU (32 g/ha a.s., Use Example 21), the “Herbicidal action in % after 20 days against LAMPU” value is 20%. For the same molecule, the “Herbicidal action in % after 20 days against DIGSA” value with DIGSA [3] is 75%. Also, the “Herbicidal action in % after 20 days against APESV” value in the test with APESV is 95%. The “Herbicidal action in % after 20 days against SETVI” value in the test with SETVI [4] (125 g/ha a.s., Use Example 18) is given as 70%.
Take `CCc1cnc(C2=NC(C)(C(C)C)C(=O)N2)c(C(=O)O)c1` (stereo not drawn) [Imazethapyr]: the results for the “Herbicidal action in % after 21 days against CCHEC” value in the test on CCHEC (17.5 g/ha a.s.) and with CCHEC (35 g/ha a.s.) were 50% and 60%, respectively. For the same molecule, the “Herbicidal action in % after 21 days against PANDI” value in the test on PANDI (17.5 g/ha a.s.) and in the test with PANDI (35 g/ha a.s.) was 95% each time.
Turning to `CCC(CC)Nc1c([N+](=O)[O-])cc(C)c(C)c1[N+](=O)[O-]` [Pendimethalin, reference compound], the “Herbicidal action in % after 20 days against LOLMU” value in the test on LOLMU [1] (250 g/ha a.s., Use Example 10) turned out to be 0%; in the test on LOLMU [6] (500 g/ha a.s.), 70%; with LOLMU [6] (1000 g/ha a.s.), 75%. Besides, the “Herbicidal action in % after 20 days against ALOMY” value with ALOMY [5] (500 g/ha a.s.) is on record as 65%; with ALOMY [5] (1000 g/ha a.s.), 75%; with ALOMY [2] (250 g/ha a.s., Use Example 10), 30%. The “Herbicidal action in % after 20 days against SETVI” value in the test on SETVI [4] (500 g/ha a.s., Use Example 17) amounted to 90%; in the test with SETVI [4] (1000 g/ha a.s., Use Example 17) it was 95%.
On to `Cn1nc(C(F)(F)F)c(CS(=O)(=O)C2=NOC(C)(C)C2)c1OC(F)F` [Pyroxasulfone], for which the “Herbicidal action in % after 21 days against LOLMU” value in the test on LOLMU [1] (25 g/ha a.s., Use Example 11) is reported as 90%. The “Herbicidal action in % after 20 days against ECHCG” value in the test with ECHCG (6.25 g/ha a.s.) is listed as 55%; in the test on ECHCG (13 g/ha a.s.) it was 85%. Moreover, the “Herbicidal action in % after 20 days against BRAPL” value was 40% in the test on BRAPL (12.5 g/ha a.s.) and 75% in the test on BRAPL (25 g/ha a.s.). For the same molecule, the “Herbicidal action in % after 21 days against LAMPU” value in the test on LAMPU (25 g/ha a.s., Use Example 11) is 55%. Also, the “Herbicidal action in % after 20 days against DIGSA” value in the test on DIGSA [7] (6.25 g/ha a.s.) is given as 70%; in the test with DIGSA [7] (13 g/ha a.s.), 95%. Moreover, the “Herbicidal action in % after 21 days against SETVI” value in the test with SETVI [8] was determined as 100%. The “Herbicidal action in % after 20 days against SOLNI” value in the test on SOLNI (6.25 g/ha a.s.) was found to be 40%; in the test on SOLNI (13 g/ha a.s.), 85%. The “Herbicidal action in % after 20 days against SETFA” value in the test with SETFA (6.25 g/ha a.s., Use Example 22) is reported as 75%; in the test on SETFA (12.5 g/ha a.s., Use Example 12), 75%; in the test with SETFA (13 g/ha a.s., Use Example 22), 98%; in the test with SETFA (25 g/ha a.s., Use Example 12) it was 98%.
